Measured values: ChEMBL document CHEMBL3856224, “Novel series of tacrine-tianeptine hybrids: Synthesis, cholinesterase inhibitory activity, S100B secretion and a molecular modeling approach” (Eur J Med Chem, 2016)
Activity calls are given as the source filed them. No cut-off for these calls is given here.

What was measured:
[1] = molecular target: T1, Acetylcholinesterase (Rattus norvegicus, UniProt P37136); design: species or system Wistar
T1 sequence (P37136 whole entry): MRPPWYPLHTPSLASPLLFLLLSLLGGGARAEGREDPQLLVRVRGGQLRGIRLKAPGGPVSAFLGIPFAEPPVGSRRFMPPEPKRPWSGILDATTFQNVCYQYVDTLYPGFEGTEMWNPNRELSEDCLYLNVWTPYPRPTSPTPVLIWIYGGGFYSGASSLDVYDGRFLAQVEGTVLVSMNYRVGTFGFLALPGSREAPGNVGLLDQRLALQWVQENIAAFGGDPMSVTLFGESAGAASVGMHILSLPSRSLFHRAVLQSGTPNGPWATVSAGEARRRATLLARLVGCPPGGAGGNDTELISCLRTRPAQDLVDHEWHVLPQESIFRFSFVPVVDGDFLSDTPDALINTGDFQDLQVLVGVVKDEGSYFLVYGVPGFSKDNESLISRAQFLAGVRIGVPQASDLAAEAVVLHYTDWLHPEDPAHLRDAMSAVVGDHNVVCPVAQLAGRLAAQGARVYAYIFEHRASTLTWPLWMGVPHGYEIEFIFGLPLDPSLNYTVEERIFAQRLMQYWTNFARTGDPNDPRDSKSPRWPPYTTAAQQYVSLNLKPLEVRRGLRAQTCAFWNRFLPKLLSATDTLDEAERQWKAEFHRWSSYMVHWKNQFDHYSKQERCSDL
Description: Inhibition of Wistar rat brain AChE using acetylthiochloline iodide as substrate after 30 mins by Ellman's method

[2] = molecular target: Cholinesterase (Homo sapiens, UniProt P06276)
Chain of Cholinesterase (P06276 whole entry): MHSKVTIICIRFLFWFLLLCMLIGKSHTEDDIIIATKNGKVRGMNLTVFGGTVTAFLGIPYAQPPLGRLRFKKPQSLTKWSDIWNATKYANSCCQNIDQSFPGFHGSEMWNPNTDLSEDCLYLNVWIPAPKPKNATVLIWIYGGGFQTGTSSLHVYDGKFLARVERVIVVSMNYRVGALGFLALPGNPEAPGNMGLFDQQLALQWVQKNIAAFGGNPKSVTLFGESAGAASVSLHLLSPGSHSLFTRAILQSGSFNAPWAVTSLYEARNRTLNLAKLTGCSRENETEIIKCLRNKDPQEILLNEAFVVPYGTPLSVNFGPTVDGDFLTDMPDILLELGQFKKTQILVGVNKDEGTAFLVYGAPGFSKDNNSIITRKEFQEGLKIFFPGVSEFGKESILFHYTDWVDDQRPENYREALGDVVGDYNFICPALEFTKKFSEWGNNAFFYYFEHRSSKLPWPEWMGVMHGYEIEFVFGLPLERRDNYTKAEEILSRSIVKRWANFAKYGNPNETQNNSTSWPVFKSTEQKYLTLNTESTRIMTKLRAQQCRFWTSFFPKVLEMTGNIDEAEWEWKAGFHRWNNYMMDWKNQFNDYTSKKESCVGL
Description: Inhibition of human plasma BuChE using S-butyrylthiocholine iodide as substrate after 30 mins by Ellman's method

[3] = test system: Hippocampus; assay: Reduction of S100B secretion in Wistar rat hippocampus at 0.03 to 0.3 uM after 1 hr by ELISA; type: functional
[4] = organism: Rattus norvegicus; assay: Toxicity in Wistar rat hippocampus assessed as LDH release at 0.03 uM relative to control; type: organism-based; details: in vivo
[5] = organism: Rattus norvegicus; assay: Toxicity in Wistar rat hippocampus assessed as LDH release at 0.1 uM relative to control; type: organism-based; details: in vivo
[6] = organism: Rattus norvegicus; assay: Toxicity in Wistar rat hippocampus assessed as LDH release at 0.3 uM relative to control; type: organism-based; details: in vivo

Row | SMILES | IC50 [1] [nM] | IC50 [2] [nM] | Activity [3] | Activity [4] [%] | Activity [5] [%] | Activity [6] [%]
1 | CN1c2ccccc2C(NCCCCCCC(=O)NCCCCCCCCNc2c3c(nc4ccccc24)CCCC3)c2ccc(Cl)cc2S1(=O)=O (stereo unspecified) | 87.5 | 4.12 | – | – | – | –
2 | CN1c2ccccc2C(NCCCCCCC(=O)NCCCCCNc2c3c(nc4cc(Cl)ccc24)CCCC3)c2ccc(Cl)cc2S1(=O)=O (stereo unspecified) | 28.3 | 30.4 | – | – | – | –
3 | CN1c2ccccc2C(NCCCCCCC(=O)NCCCCCNc2c3c(nc4ccccc24)CCCC3)c2ccc(Cl)cc2S1(=O)=O (stereo unspecified) | 108 | 6.97 | Active | 67.4 | – | –
4 | CN1c2ccccc2C(NCCCCCCC(=O)NCCNc2c3c(nc4ccccc24)CCCC3)c2ccc(Cl)cc2S1(=O)=O (stereo unspecified) | 82.2 | 22.6 | – | – | – | –
5 | CN1c2ccccc2C(NCCCCCCC(=O)NCCCCCCNc2c3c(nc4cc(Cl)ccc24)CCCC3)c2ccc(Cl)cc2S1(=O)=O (stereo unspecified) | 39.1 | 32.1 | – | – | – | –
6 | CN1c2ccccc2C(NCCCCCCC(=O)NCCCCCCCNc2c3c(nc4cc(Cl)ccc24)CCCC3)c2ccc(Cl)cc2S1(=O)=O (stereo unspecified) | 132 | 53.8 | – | – | – | –
7 | CN1c2ccccc2C(NCCCCCCC(=O)NCCCNc2c3c(nc4cc(Cl)ccc24)CCCC3)c2ccc(Cl)cc2S1(=O)=O (stereo unspecified) | 6.79 | 52.4 | – | – | – | –
8 | CN1c2ccccc2C(NCCCCCCC(=O)NCCCCCCCCNc2c3c(nc4cc(Cl)ccc24)CCCC3)c2ccc(Cl)cc2S1(=O)=O (stereo unspecified) | 452 | 456 | – | – | – | –
9 | CN1c2ccccc2C(NCCCCCCC(=O)NCCCCNc2c3c(nc4ccccc24)CCCC3)c2ccc(Cl)cc2S1(=O)=O (stereo unspecified) | 156 | 3.59 | Active | 72.7 | 74.9 | –
10 | CN1c2ccccc2C(NCCCCCCC(=O)NCCCCCCCNc2c3c(nc4ccccc24)CCCC3)c2ccc(Cl)cc2S1(=O)=O (stereo unspecified) | 65 | 6.4 | – | – | – | –
11 | c1ccc2c(NCCCCCCCNc3c4c(nc5ccccc35)CCCC4)c3c(nc2c1)CCCC3 | – | 38.3 | – | – | – | –
12 | CN1c2ccccc2C(NCCCCCCC(=O)NCCCNc2c3c(nc4ccccc24)CCCC3)c2ccc(Cl)cc2S1(=O)=O (stereo unspecified) | 52.2 | 11.6 | – | – | – | –
13 | CN1c2ccccc2C(NCCCCCCC(=O)O)c2ccc(Cl)cc2S1(=O)=O (stereo unspecified) [TIANEPTINE] | – | – | – | – | 109.7 | 110.8
14 | CN1c2ccccc2C(NCCCCCCC(=O)NCCNc2c3c(nc4cc(Cl)ccc24)CCCC3)c2ccc(Cl)cc2S1(=O)=O (stereo unspecified) | 8.01 | 47.3 | – | – | – | –
15 | CN1c2ccccc2C(NCCCCCCC(=O)NCCCCNc2c3c(nc4cc(Cl)ccc24)CCCC3)c2ccc(Cl)cc2S1(=O)=O (stereo unspecified) | 36.5 | 48.1 | – | – | – | –
16 | CN1c2ccccc2C(NCCCCCCC(=O)NCCCCCCNc2c3c(nc4ccccc24)CCCC3)c2ccc(Cl)cc2S1(=O)=O (stereo unspecified) | 116 | 3.79 | – | – | – | –
